Data on 54 compounds can be found in US20260001849A1, “NOVEL B0AT1 INHIBITOR” (MITSUBISHI TANABE PHARMA CORPORATION, priority 2023, published 2026).

Usually IC50 stands for the midpoint of a concentration-inhibition curve.

In one assay the target is T1, Human BOAT1 (Homo sapiens, UniProt Q695T7).
T1 construct: expressed in transfected cells
T1 sequence (Q695T7 1-634): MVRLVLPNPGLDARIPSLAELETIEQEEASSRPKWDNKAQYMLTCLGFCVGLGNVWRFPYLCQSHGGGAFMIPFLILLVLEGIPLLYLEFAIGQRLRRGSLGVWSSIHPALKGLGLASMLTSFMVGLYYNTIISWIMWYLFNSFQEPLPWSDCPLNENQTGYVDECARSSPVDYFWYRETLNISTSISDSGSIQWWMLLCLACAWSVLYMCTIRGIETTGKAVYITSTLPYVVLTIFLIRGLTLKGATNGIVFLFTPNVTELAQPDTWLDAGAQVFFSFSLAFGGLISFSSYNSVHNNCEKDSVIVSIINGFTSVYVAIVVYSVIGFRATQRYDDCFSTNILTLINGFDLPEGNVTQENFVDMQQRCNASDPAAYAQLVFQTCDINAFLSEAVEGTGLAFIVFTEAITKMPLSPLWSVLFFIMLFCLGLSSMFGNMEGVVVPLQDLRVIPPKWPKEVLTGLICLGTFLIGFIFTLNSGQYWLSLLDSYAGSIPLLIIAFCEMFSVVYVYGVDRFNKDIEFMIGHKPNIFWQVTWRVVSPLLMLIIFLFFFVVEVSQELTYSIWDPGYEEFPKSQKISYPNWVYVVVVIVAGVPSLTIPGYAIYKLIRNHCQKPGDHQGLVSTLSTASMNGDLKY
Kind of assay: hBOAT1 inhibitory test (phenylalanine uptake). The assay is classed as cell-based. Conditions: Human BOAT1 stable expression CHO cells; [3H]-L-phenylalanine uptake, phenylalanine 0.25 mM; radioactivity after 100 to 200 min; read-out: hB0AT1 IC50. The protocol: A test compound dissolved in dimethyl sulfoxide (DMSO) was added to a 96 well plate for solid phase radioactivity measurement containing a scintillator at the bottom of the well (final concentration of DMSO 0.5%). DMSO alone as a control and DMSO containing N-(4-bromophenyl)-3,5-dichloro-2-hydroxybenzamide (final concentration […]) for the measurement of BOAT1 non-specific uptake were similarly added at 0.5 μL per well. Human BOAT1 stable expression CHO cells suspended in a buffer (buffer containing 96 mM sodium chloride, 2 mM potassium chloride, 1.8 mM calcium chloride, 1 mM magnesium chloride, 0.01% bovine serum albumin, and 10 mM 2-[4-(2-hydroxyethyl)-1-piperazinyl]ethanesulfonic acid) were added by 90 μL to 75000 cells/well. After standing at ordinary temperature for 30 min or longer, the cells were subjected to a phenylalanine uptake experiment. A buffer containing L-phenylalanine and [3,4,5-3H]-L-phenylalanine was added by 10 μL per well (final concentration of phenylalanine 0.25 mM), and the radioactivity of the plate bottom surface at ordinary temperature was measured with a scintillation counter over time, and the radioactivity value after 100 to 200 min was analyzed.
As for `COC(=O)c1cccc(C2CN(C(=O)CNC(=O)/C=C/c3ccc(C(F)(F)F)cc3F)CCN2C)c1` (stereo not drawn) [I-62], the IC50 was 0.463 µM.

For `COC(=O)Cc1cc(F)c2c(c1)CCN(C(=O)CNC(=O)/C=C/c1ccc(C(F)(F)F)cc1F)C2` [I-118], the concentration for half-maximal inhibition (IC50) is 0.042 µM.

In the case of `O=C(O)Cc1ccc2c(c1)CCN(C(=O)CNC(=O)/C=C/c1ccc(C(F)(F)F)cc1)CC2` [I-140, 2-[3-[2-[[(E)-3-[4-(trifluoromethyl)phenyl]prop-2-enoyl]amino]acetyl]-1,2,4,5-tetrahydro-3-benzazepin-7-yl]acetic acid], the IC50 is 0.436 µM.

With `O=C(O)Cc1ccc2c(c1)CN(C(=O)CNC(=O)/C=C/c1ccc(C(F)(F)F)cc1)C2` [I-142], the IC50 was found to be 0.241 µM.

Take `N#Cc1c(CC(=O)O)ccc2c1CCN(C(=O)CNC(=O)/C=C/c1ccc(S(F)(F)(F)(F)F)cc1)C2` [I-152]: the IC50 stood at 0.096 µM.

With `O=C(O)Cc1cc(Cl)c2c(c1)CCN(C(=O)CNC(=O)/C=C/c1ccc(I)cc1)C2` [I-155], the IC50 came out at 0.084 µM.

In the case of `O=C(O)CCc1ncc2c(n1)CCN(C(=O)CNC(=O)/C=C/c1ccc(C(F)(F)F)cc1)C2` [I-156], the IC50 was 0.251 µM.

With `O=C(/C=C/c1ccc(C(F)(F)F)cc1)NCC(=O)N1CCc2cc(N3CCC(C(=O)O)C3)ccc2C1` (stereo not drawn) [I-160], the IC50 worked out at 0.156 µM.

In the case of `O=C(/C=C/c1ccc(C(F)(F)F)cc1)NCC(=O)N1CCc2cc(N3CCC(C(=O)O)CC3)ccc2C1` [I-161], the IC50 worked out at 0.259 µM.

Turning to `CC(Cc1ccc2c(c1)CCN(C(=O)CNC(=O)/C=C/c1ccc(C(F)(F)F)cc1)C2)C(=O)O` (stereo not drawn) [I-163], the IC50 came to 0.223 µM.

For `CC(CC(=O)O)c1ccc2c(c1)CCN(C(=O)CNC(=O)/C=C/c1ccc(C(F)(F)F)cc1)C2` (stereo not drawn) [I-164], the IC50 turned out to be 0.386 µM.

Take `O=C(O)Cc1cc2c(cn1)CN(C(=O)CNC(=O)/C=C/c1ccc(C(F)(F)F)cc1)CC2` [I-167]: the IC50 is 0.106 µM.

On to `O=C(O)Cc1ccc2c(c1)CN(C(=O)CNC(=O)/C=C/c1ccc(C(F)(F)F)cc1)CC2` [I-168], for which the IC50 stood at 0.447 µM.

As to `O=C(O)CCCc1ccc2c(c1)CCN(C(=O)CNC(=O)/C=C/c1ccc(C(F)(F)F)cc1)C2` [I-170], the half-maximal inhibitory concentration (IC50) amounted to 0.24 µM.

For `COc1cc(CC(=O)O)cc2c1CN(C(=O)CNC(=O)/C=C/c1ccc(C(F)(F)F)cc1)CC2` [I-177], the half-inhibitory concentration (IC50) came out at 0.171 µM.

Take `O=C(O)Cc1cnn2c1CN(C(=O)CNC(=O)/C=C/c1ccc(C(F)(F)F)cc1)CC2` [I-179]: the IC50 was determined as 0.872 µM.

As for `O=C(O)COc1cc(Br)c2c(c1)CCN(C(=O)CNC(=O)/C=C/c1ccc(C(F)(F)F)cc1)C2` [I-181], the IC50 was 0.138 µM.

With `O=C(O)Cc1ccc2c(c1)CCN(C(=O)CNC(=O)/C=C/c1ccc(C(F)(F)F)cc1Cl)C2` [I-188], the IC50 turned out to be 0.115 µM.

For the compound `O=C(O)Cc1ccc2c(c1)CCN(C(=O)CNC(=O)/C=C/c1ccc(C(F)(F)F)c(F)c1)C2` [I-189], the concentration for half-maximal inhibition (IC50) is 0.424 µM.

For the compound `O=C(O)Cc1cccc2c1CCN(C(=O)CNC(=O)/C=C/c1ccc(C(F)(F)F)cc1)C2` [I-192], the IC50 turned out to be 0.397 µM.

With `O=C(O)CCc1cnn2c1CN(C(=O)CNC(=O)/C=C/c1ccc(C(F)(F)F)cc1)CC2` [I-193], the IC50 is 0.459 µM.

With `O=C(O)CCc1nc2c(s1)CN(C(=O)CNC(=O)/C=C/c1ccc(C(F)(F)F)cc1)CC2` [I-200, 3-[5-[2-[[(E)-3-[4-(trifluoromethyl)phenyl]prop-2-enoyl]amino]acetyl]-6,7-dihydro-4H-[1,3]thiazolo[5,4-c]pyridin-2-yl]propanoic acid], the IC50 was determined as 0.192 µM.

Take `N#Cc1c(CC(=O)O)ccc2c1CCN(C(=O)CNC(=O)/C=C/c1ccc(I)cc1F)C2` [I-203]: the IC50 stood at 0.056 µM.

For `O=C(O)Cc1ccc2n(c1=O)CCN(C(=O)CNC(=O)/C=C/c1ccc(C(F)(F)F)cc1F)C2` [I-207], the IC50 was determined as 0.579 µM.

Turning to `O=C(O)Cc1ncc2c(n1)CCN(C(=O)CNC(=O)/C=C/c1ccc(C(F)(F)F)cc1)C2` [I-208], the IC50 came to 0.224 µM.

Consider `CC(F)(F)c1ccc(/C=C/C(=O)NCC(=O)N2CCc3cc(CC(=O)O)ccc3C2)cc1` [I-211], for which the IC50 came out at 0.263 µM.

As to `COCC1c2ccc(CC(=O)O)cc2CCN1C(=O)CNC(=O)/C=C/c1ccc(C(F)(F)F)cc1` (stereo not drawn) [I-212], the concentration for half-maximal inhibition (IC50) was found to be 0.496 µM.

On to `O=C(O)Cc1ccc2c(c1)C(O)CN(C(=O)CNC(=O)/C=C/c1ccc(C(F)(F)F)cc1)C2` (stereo not drawn) [I-213], for which the IC50 stood at 0.156 µM.

With `CCC1c2ccc(CC(=O)O)cc2CCN1C(=O)CNC(=O)/C=C/c1ccc(C(F)(F)F)cc1` (stereo not drawn) [I-216], the IC50 worked out at 0.358 µM.

For the compound `O=C(O)CNc1ccc2c(c1)CN(C(=O)CNC(=O)/C=C/c1ccc(C(F)(F)F)cc1)CC2` [I-217], the IC50 was 0.202 µM.

Regarding `Cc1nn(CC(=O)O)c2c1CN(C(=O)CNC(=O)/C=C/c1ccc(C(F)(F)F)cc1)CC2` [I-219], the IC50 was 0.256 µM.

Take `O=C(O)CCc1cc2c(s1)CN(C(=O)CNC(=O)/C=C/c1ccc(C(F)(F)F)cc1)CC2` [I-220]: the IC50 worked out at 0.1 µM.

Consider `O=C(O)Cc1cc2c(cc1Cl)CN(C(=O)CNC(=O)/C=C/c1ccc(C(F)(F)F)cc1F)CC2` [I-221], for which the IC50 is 0.071 µM.

For the compound `N#Cc1cc2c(cc1CC(=O)O)CCN(C(=O)CNC(=O)/C=C/c1ccc(I)cc1)C2` [I-222], the IC50 was 0.107 µM.

Take `CCC(F)(F)c1ccc(/C=C/C(=O)NCC(=O)N2CCc3cc(CC(=O)O)ccc3C2)cc1` [I-227]: the IC50 is 0.667 µM.

In the case of `O=C(O)CCCCc1ccc2c(c1)CCN(C(=O)CNC(=O)/C=C/c1ccc(C(F)(F)F)cc1)C2` [I-228], the IC50 was determined as 0.462 µM.

Regarding `O=C(/C=C/c1ccc(C(F)(F)F)cc1)NCC(=O)N1CCCC(C23CCC(C2)C3C(=O)O)C1` (stereo not drawn) [I-229], the IC50 worked out at 0.152 µM.

Consider `Cc1cc2c(cc1CC(=O)O)CCN(C(=O)CNC(=O)/C=C/c1ccc(C(F)(F)F)cc1)C2` [I-230], for which the IC50 worked out at 0.124 µM.

As for `O=C(O)CCc1cccc2c1CCN2C(=O)CNC(=O)/C=C/c1ccc(C(F)(F)F)cc1F` [I-245], the IC50 was 0.045 µM.

Take `O=C(O)CCc1cccc2c1CCN2C(=O)CNC(=O)/C=C/c1ccc(C(F)(F)F)cc1` [I-246]: the IC50 was found to be 0.044 µM.

`O=C(/C=C/c1ccc(C(F)(F)F)cc1F)NCC(=O)N1CCN(Cc2ccc(C(=O)O)cc2)CC1c1ccc(Cl)cc1` (stereo not drawn) [I-251]: the IC50 turned out to be 0.366 µM.

The assay is the same for the next values; noted with them: Human BOAT1 stable expression CHO cells; phenylalanine uptake, phenylalanine 0.25 mM; read-out: hB0AT1 IC50.
Consider `CC(C)(CCN1CCN(C(=O)CNC(=O)/C=C/c2ccc(C(F)(F)F)cc2F)C(c2ccc(Cl)cc2)C1)C(=O)O` (stereo not drawn) [I-254], for which the IC50 is 0.097 µM.

`O=C(O)CCCN1CCN(C(=O)CNC(=O)/C=C/c2ccc(C(F)(F)F)cc2F)C(c2cccc(C3CC3)c2)C1` (stereo not drawn) [I-256]: the IC50 came to 0.048 µM.

For `CN1CCN(C(=O)CNC(=O)/C=C/c2ccc(C(F)(F)F)cc2F)CC1c1cccc(C(=O)O)c1` (stereo not drawn) [I-258], the IC50 amounted to 1.33 µM.

Consider `CC1(C)CN(C(=O)CNC(=O)/C=C/c2ccc(C(F)(F)F)cc2F)[C@@H](c2ccccc2)CN1CCCC(=O)O` [I-259], for which the IC50 was 0.14 µM.

Consider `O=C(O)Cc1ccccc1C1=CCCN(C(=O)CNC(=O)/C=C/c2ccc(C(F)(F)F)cc2F)C1` [I-260], for which the IC50 was found to be 0.638 µM.

Regarding `O=C(O)CCCN1CCN(C(=O)CNC(=O)/C=C/c2ccc(C(F)(F)F)cc2F)C(c2cccc(C(F)(F)F)c2)C1` (stereo not drawn) [I-262], the IC50 was determined as 0.125 µM.

Turning to `O=C(O)CCCN1CCN(C(=O)CNC(=O)/C=C/c2ccc(C(F)(F)F)cc2F)[C@@H](c2ccc(C3CC3)cc2)C1` [I-263], the IC50 is 0.018 µM.

For `NC(=O)Cc1ccc2c(c1)CCN(C(=O)CNC(=O)/C=C/c1ccc(C(F)(F)F)cc1)C2` [I-273, (E)-N-[2-[6-(2-amino-2-oxoethyl)-3,4-dihydro-1H-isoquinolin-2-yl]-2-oxoethyl]-3-[4-(trifluoromethyl)phenyl]prop-2-enamide], the IC50 was 0.022 µM.

As to `O=C(/C=C/c1ccc(C(F)(F)F)cc1)NCC(=O)N1CCn2ncc(CCC(=O)N3CCCC3)c2C1` [I-274], the IC50 was found to be 0.034 µM.

With `CN(C)C(=O)CCc1cnn2c1CN(C(=O)CNC(=O)/C=C/c1ccc(C(F)(F)F)cc1)CC2` [I-275], the IC50 was 0.078 µM.

In the case of `NC(=O)Cc1cc(F)c2c(c1)CCN(C(=O)CNC(=O)/C=C/c1ccc(C(F)(F)F)cc1)C2` [I-276], the IC50 is 0.017 µM.

As for `CNC(=O)Cc1ccc2c(c1)CCN(C(=O)CNC(=O)/C=C/c1ccc(C(F)(F)F)cc1)C2` [I-277], the IC50 was 0.03 µM.

Turning to `NC(=O)Cc1ccc2c(c1)CN(C(=O)CNC(=O)/C=C/c1ccc(C(F)(F)F)cc1)CC2` [I-278], the IC50 was determined as 0.04 µM.
